Measurements taken from patent US12084472B2 (Ardelyx, Inc., priority 2015, dated 2024).

Target: T1, human TGR5 (Homo sapiens, UniProt Q8TDU6)
T1 construct: expressed in transfected cells; host or cells: HEK293
T1 sequence (Q8TDU6 1-330): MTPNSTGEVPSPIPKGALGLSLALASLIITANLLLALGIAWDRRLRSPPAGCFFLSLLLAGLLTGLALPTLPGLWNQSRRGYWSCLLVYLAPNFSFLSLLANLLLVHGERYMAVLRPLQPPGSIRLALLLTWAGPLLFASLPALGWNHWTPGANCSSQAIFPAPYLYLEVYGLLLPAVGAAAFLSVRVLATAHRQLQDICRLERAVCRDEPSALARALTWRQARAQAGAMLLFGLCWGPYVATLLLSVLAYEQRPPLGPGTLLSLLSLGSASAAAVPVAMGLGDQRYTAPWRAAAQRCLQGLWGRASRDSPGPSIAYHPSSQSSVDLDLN
Experiment: Cell-based TGR5 assay (cAMP generation, HTRF)
Conditions: HEK293 cells stably transfected with human TGR5; cAMP by HTRF; 30 minutes at 37° C.; read-out: pEC50 Human TGR5 (converted)
In short: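 Read-out was HTRF detection of cAMP, converted to concentration via a standard curve and fitted (3-parameter logistic) for pEC50 and maximal response. Agonist stimulation used HEK293 cells stably transfected with human TGR5, incubated 30 min at 37° C in IBMX-containing buffer at 0.05 nM to 10 μM compound.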

Row | SMILES | EC50 [nM]
1 | CC(CCCN(CC1CCOCC1)C(=O)[C@@H](O)[C@@H](O)[C@H](O)[C@@H](O)CO)c1ccc(Cl)c(CNC2(c3cnccc3-c3ccccc3OC3CC3)CC2)c1 (stereo partly drawn) [Compound I-287, (2S,3S,4R,5S)-N-(4-{4-chloro-3-[({1-[4-(2-cyclopropoxyphenyl)pyridin-3-yl]cyclopropyl}amino)methyl]phenyl}pentyl)-2,3,4,5,6-pentahydroxy-N-(oxan-4-ylmethyl)hexanamide] | < 100
2 | O=C(CCCCc1cc(Cl)c(COC2(c3cnccc3-c3ccccc3OC3CC3)CC2)cc1Cl)N[C@@H](CO)[C@@H](O)[C@H](O)[C@H](O)CO [Compound I-156, 5-[2,5-dichloro-4-({1-[4-(2-cyclopropoxyphenyl)pyridin-3-yl]cyclopropoxy}methyl)phenyl]-N-[(2S,3R,4S,5R)-1,3,4,5,6-pentahydroxyhexan-2-yl]pentanamide] | < 100
3 | Cc1cc(COC2(c3cnccc3-c3ccccc3OC3CC3)CC2)c(Cl)cc1CCCCNC(=O)N[C@@H](C)C(=O)N[C@@H](C)C(=O)N[C@@H](C)C(=O)O [Compound I-112, (2S)-2-[(2S)-2-[(2S)-2-[({4-[5-chloro-4-({1-[4-(2-cyclopropoxyphenyl)pyridin-3-yl]cyclopropoxy}methyl)-2-methylphenyl]butyl}carbamoyl)amino]propanamido]propanamido]propanoic acid] | < 100
4 | CS(=O)(=O)c1ccc(Cl)cc1CNC1(c2cnccc2-c2ccccc2OC2CC2)CC1 [Compound I-43, N-[(5-chloro-2-methanesulfonylphenyl)methyl]-1-[4-(2-cyclopropoxyphenyl)pyridin-3-yl]cyclopropan-1-amine] | 126 to 1000
5 | CC(CCCC(=O)NC[C@H](O)[C@@H](O)[C@H](O)[C@H](O)CO)c1ccc(Cl)c(CNC2(c3cnccc3-c3ccccc3OC3CC3)CC2)c1 (stereo partly drawn) [Compound I-316, 5-{4-chloro-3-[({1-[4-(2-cyclopropoxyphenyl)pyridin-3-yl]cyclopropyl}amino)methyl]phenyl}-N-[(2S,3R,4R,5R)-2,3,4,5,6-pentahydroxyhexyl]hexanamide] | < 100
6 | CC(CCCC(=O)N(CC(N)=O)C[C@H](O)[C@@H](O)[C@H](O)[C@H](O)CO)c1ccc(Cl)c(CNC2(c3cnccc3-c3ccccc3OC3CC3)CC2)c1 (stereo partly drawn) [Compound I-332, N-(carbamoylmethyl)-5-{4-chloro-3-[({1-[4-(2-cyclopropoxyphenyl)pyridin-3-yl]cyclopropyl}amino)methyl]phenyl}-N-[(2S,3R,4R,5R)-2,3,4,5,6-pentahydroxyhexyl]hexanamide] | < 100
7 | CC(CCCc1cc(Cl)c(COC2(c3cnccc3-c3ccccc3OC3CC3)CC2)cc1Cl)C(=O)N(C)C[C@H](O)[C@@H](O)[C@H](O)[C@H](O)CO (stereo partly drawn) [Compound I-140, 5-[2,5-dichloro-4-({1-[4-(2-cyclopropoxyphenyl)pyridin-3-yl]cyclopropoxy}methyl)phenyl]-N,2-dimethyl-N-[(2S,3R,4R,5R)-2,3,4,5,6-pentahydroxyhexyl]pentanamide] | < 100
8 | CCN(C[C@H](O)[C@@H](O)[C@H](O)[C@H](O)CO)C(=O)NCCCCc1cc(Cl)c(COC2(c3cnccc3-c3ccccc3OC3CC3)CC2)cc1C [Compound I-94, 3-(4-(5-chloro-4-((1-(4-(2-cyclopropoxyphenyl)pyridin-3-yl)cyclopropoxy)methyl)-2-methylphenyl)butyl)-1-ethyl-1-((2S,3R,4R,5R)-2,3,4,5,6-pentahydroxyhexyl)urea] | < 100
9 | COc1ccccc1-c1ccncc1C1(NCc2cc(Cl)ccc2Cl)CC1 [Compound I-4, N-[(2,5-dichlorophenyl)methyl]-1-[4-(2-methoxyphenyl)pyridin-3-yl]cyclopropan-1-amine] | 126 to 1000
10 | CC(C)N(CCCCc1cc(Cl)c(COC2(c3cnccc3-c3ccccc3OC3CC3)CC2)cc1Cl)C(=O)[C@@H](O)[C@@H](O)[C@H](O)[C@@H](O)CO (stereo in doubt) [Compound I-210, (2S,3S,4R,5S)-N-{4-[2,5-dichloro-4-({1-[4-(2-cyclopropoxyphenyl)pyridin-3-yl]cyclopropoxy}methyl)phenyl]butyl}-2,3,4,5,6-pentahydroxy-N-(propan-2-yl)hexanamide] | < 100
11 | Clc1ccc(Cl)c(CNC2(c3cnccc3-c3ccccc3OC3CCC3)CC2)c1 [Compound I-5, 1-[4-(2-cyclobutoxyphenyl)pyridin-3-yl]-N-[(2,5-dichlorophenyl)methyl]cyclopropan-1-amine] | 126 to 1000
12 | CN(CCCCc1cc(Cl)c(COC2(c3cnccc3-c3ccccc3OC3CC3)CC2)cc1Cl)C(=O)[C@@H](O)[C@@H](O)[C@H](O)[C@@H](O)CN1CCOCC1 (stereo in doubt) [Compound I-189, (2S,3S,4R,5S)-N-{4-[2,5-dichloro-4-({1-[4-(2-cyclopropoxyphenyl)pyridin-3-yl]cyclopropoxy}methyl)phenyl]butyl}-2,3,4,5-tetrahydroxy-N-methyl-6-(morpholin-4-yl)hexanamide] | < 100
13 | Clc1ccc(C2CC2)cc1COC1(c2cnccc2-c2ccccc2OC2CC2)CC1 [Compound I-53, 3-{1-[(2-chloro-5-cyclopropylphenyl)methoxy]cyclopropyl}-4-(2-cyclopropoxyphenyl)pyridine] | < 100

The remaining lines, values ahead:

Row | EC50 [nM] | SMILES
14 | 126 to 1000 | CN1CCCN(S(=O)(=O)c2ccc(Cl)c(COC3(c4cnccc4-c4ccccc4OC4CC4)CC3)c2)CC1 [Compound I-769, 1-((4-chloro-3-((1-(4-(2-cyclopropoxyphenyl)pyridin-3-yl)cyclopropoxy)methyl)phenyl)sulfonyl)-4-methyl-1,4-diazepane]
15 | < 100 | Cc1ccc(S(=O)(=O)N(C)CCCCNC(=O)NC[C@H](O)[C@@H](O)[C@H](O)[C@H](O)CO)cc1CNC1(c2cnccc2-c2ccccc2OC2CC2)CC1 [Compound I-477, 1-(4-{N-methyl3-[({1-[4-(2-cyclopropoxyphenyl)pyridin-3-yl]cyclopropyl}amino)methyl]-4-methylbenzenesulfonamido}butyl)-3-[(2S,3R,4R,5R)-2,3,4,5,6-pentahydroxyhexyl]urea]
16 | < 100 | O=C(NCCOCCSc1ccc(Cl)c(COC2(c3cnccc3-c3ccccc3OC3CC3)CC2)c1)NC[C@H](O)[C@@H](O)[C@H](O)[C@H](O)CO [Compound I-490, 1-[2-(2-[[4-Chloro-3-([1-[4-(2-cyclopropoxyphenyl)pyridin-3-yl]cyclopropoxy]methyl)phenyl]sulfanyl]ethoxy)ethyl]-3-[(2S,3R,4R,5R)-2,3,4,5,6-pentahydroxyhexyl]urea]
17 | < 100 | CN(CCCSc1ccc(Cl)c(COC2(c3cnccc3-c3ccccc3OC3CC3)CC2)c1)C(=O)[C@@H](O)[C@@H](O)[C@H](O)[C@@H](O)CO [Compound I-508, (2S,3S,4R,5S)-N-(3-{[4-chloro-3-({1-[4-(2-cyclopropoxyphenyl)pyridin-3-yl]cyclopropoxy}methyl)phenyl]sulfanyl}propyl)-2,3,4,5,6-pentahydroxy-N-methylhexanamide]
18 | 126 to 1000 | CN(C)C(=O)CN(C[C@H](O)[C@@H](O)[C@H](O)[C@H](O)CO)C(=O)CCCSc1ccc(Cl)c(COC2(c3cnccc3-c3ccccc3OC3CC3)CC2)c1 [Compound I-674, 4-{[4-chloro-3-({1-[4-(2-cyclopropoxyphenyl)pyridin-3-yl]cyclopropoxy}methyl)phenyl]sulfanyl}-N-[(dimethylcarbamoyl)methyl]-N-[(2S,3R,4R,5R)-2,3,4,5,6-pentahydroxyhexyl]butanamide]
19 | 126 to 1000 | CCNC(=O)[C@H](CCCCNS(=O)(=O)c1ccc(Cl)c(COC2(c3cnccc3-c3ccccc3OC3CC3)CC2)c1)NC(=O)NC[C@H](O)[C@@H](O)[C@H](O)[C@H](O)CO [Compound I-487]
20 | < 100 | CN(C[C@H](O)[C@@H](O)[C@H](O)[C@H](O)CO)S(=O)(=O)c1ccc(Cl)c(COC2(c3cnccc3-c3ccccc3OC3CC3)CC2)c1 [Compound I-398, (2S,3R,4R,5R)-S-[4-chloro-3-({1-[4-(2-cyclopropoxyphenyl)pyridin-3-yl]cyclopropoxy}methyl)phenyl]-2,3,4,5,6-pentahydroxy-N-methylhexane-1-sulfonamido]
21 | < 100 | CCN(C[C@H](O)[C@@H](O)[C@H](O)[C@H](O)CO)C(=O)CCCC(C)c1ccc(Cl)c(COC2(c3cnccc3-c3ccccc3OC3CC3)CC2)c1 (stereo partly drawn) [Compound I-373, 5-[4-chloro-3-({1-[4-(2-cyclopropoxyphenyl)pyridin-3-yl]cyclopropoxy}methyl)phenyl]-N-ethyl-N-[(2S,3R,4R,5R)-2,3,4,5,6-pentahydroxyhexyl]hexanamide]
22 | < 100 | O=C(CCCCNS(=O)(=O)c1ccc(Cl)c(COC2(c3cnccc3-c3ccccc3OC3CC3)CC2)c1)NC[C@H](O)[C@@H](O)[C@H](O)[C@H](O)CO [Compound I-433, 5-[4-chloro-3-({1-[4-(2-cyclopropoxyphenyl)pyridin-3-yl]cyclopropoxy}methyl)benzenesulfonamido]-N-[(2S,3R,4R,5R)-2,3,4,5,6-pentahydroxyhexyl]pentanamide]
23 | < 100 | O=C([C@@H](O)[C@@H](O)[C@H](O)[C@@H](O)CO)N(CCCCO)CCCSc1ccc(Cl)c(CNC2(c3cnccc3-c3ccccc3OC3CC3)CC2)c1 [Compound I-527, (2S,3S,4R,5S)-N-[3-({4-chloro-3-[({1-[4-(2-cyclopropoxyphenyl)pyridin-3-yl]cyclopropyl}amino)methyl]phenyl}sulfanyl)propyl]-2,3,4,5,6-pentahydroxy-N-(4-hydroxybutyl)hexanamide]
